Biological target: PAD4 (Homo sapiens, UniProt Q9UM07)
Assay: PAD4 Inhibition Assay (citrulline formation from BAEE substrate)
Assay type: biochemical
Conditions: PAD4 75 nM, 60 minute preincubation at 37° C., 90 minutes
Procedure: PAD4 was diluted to 75 nM in Assay Buffer (50 mM Tris-HCl, 2 mM CaCl2), 2 mM DTT, 1 mM PMSF in H2O) and added to wells with various concentrations of compound or DMSO vehicle in Eppendorf tubes (final volume was 100 μL). Following a 60 minute preincubation at 37° C., the reaction was initiated by the addition of 10 μL substrate (22 mM BAEE in H2O) at 37° C. The reaction was stopped after 90 minutes by the addition of 25 μL HClO4 (5 M), 125 μL Reagent A (10 g/L diacetyl monoxime and 15 g/L NaCl in H2O) and 250 μL Reagent B (10 mg/mL antipyrine and 1.0 mg/mL FeCl3 diluted in detection buffer containing 25% H2SO4, 25% H3PO4 and 50% H2O) in sequence. This assay was quenched in an ice-bath for 5 minutes after boiling for 30 minutes. The citrulline formation was measured in fluorescence (κ=465 nm) on microplate reader and the IC50 was calculated by GraphPad Prism.

Chain of PAD4 (Q9UM07 whole entry): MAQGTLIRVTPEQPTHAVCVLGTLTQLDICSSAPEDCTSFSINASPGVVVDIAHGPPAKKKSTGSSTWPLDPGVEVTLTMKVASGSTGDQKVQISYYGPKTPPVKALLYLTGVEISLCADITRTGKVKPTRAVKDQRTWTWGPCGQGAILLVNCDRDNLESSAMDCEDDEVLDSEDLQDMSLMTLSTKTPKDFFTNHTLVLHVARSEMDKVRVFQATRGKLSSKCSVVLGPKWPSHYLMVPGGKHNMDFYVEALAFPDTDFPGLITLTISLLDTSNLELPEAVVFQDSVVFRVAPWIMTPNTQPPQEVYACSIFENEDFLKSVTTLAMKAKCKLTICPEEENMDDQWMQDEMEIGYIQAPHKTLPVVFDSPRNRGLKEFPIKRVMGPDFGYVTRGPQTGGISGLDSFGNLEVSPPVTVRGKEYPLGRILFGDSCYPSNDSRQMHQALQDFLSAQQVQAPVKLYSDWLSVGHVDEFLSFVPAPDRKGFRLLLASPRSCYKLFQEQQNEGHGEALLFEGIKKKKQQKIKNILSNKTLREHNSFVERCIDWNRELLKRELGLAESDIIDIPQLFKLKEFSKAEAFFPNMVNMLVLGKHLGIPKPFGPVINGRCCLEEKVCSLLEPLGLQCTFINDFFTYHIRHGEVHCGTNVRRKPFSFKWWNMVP

| Compound | IC50 [nM] |
| --- | --- |
| N=C(CCl)NCCC[C@H](NC(=O)c1cccc(-c2cccc(Cl)c2)c1)c1ncc(-c2ccccc2)o1 [EX-2, (S)-3′-chloro-N-(4-(2-chloroacetimidamido)-1-(5-phenyloxazol-2-yl)butyl)-[1,1′-biphenyl]-3-carboxamide] | > 500 |
| CN(C)c1ccc2cc(C(=O)N[C@@H](CCCNC(=N)CF)c3ncc(-c4ccc(Cl)cc4)o3)ccc2c1 [EX-7, (S)—N-(1-(5-(4-chlorophenyl)oxazol-2-yl)-4-(2-fluoroacetimidamido)butyl)-6-(dimethylamino)-2-naphthamide] | > 500 |
| CN(C)c1ccc2cc(C(=O)N[C@@H](CCCNC(=N)CF)c3ncc(-c4cccc(F)c4)o3)ccc2c1 [EX-8, (S)-6-(Dimethylamino)-N-(4-(2-fluoroacetimidamido)-1-(5-(3-fluorophenyl)oxazol-2-yl)butyl)-2-naphthamide] | > 500 |
| N=C(CF)NCCC[C@H](NC(=O)c1cccc(-c2ccc(CO)cc2)c1)c1ncc(-c2ccc(Cl)cc2)o1 [EX-9, (S)—N-(1-(5-(4-chlorophenyl)oxazol-2-yl)-4-(2-fluoroacetimidamido)butyl)-4′-(hydroxymethyl)-[1,1′-biphenyl]-3-carboxamide] | > 500 |
| COc1cc2c(OC)cccc2cc1C(=O)N[C@@H](CCCNC(=N)CF)c1ncc(C)o1 [EX-12, (S)-N-(4-(2-fluoroacetimidamido)-1-(5-methyloxazol-2-yl)butyl)-3,5-dimethoxy-2-naphthamide] | > 500 |
| N=C(CF)NCCC[C@H](NC(=O)c1cccc(-c2cc(Cl)ccn2)c1)c1ncc(-c2ccccc2)o1 [EX-15] | > 500 |
| COc1ccc(N2CCOCC2)cc1C(=O)N[C@@H](CCCNC(=N)CF)c1ncc(-c2ccccc2)o1 [EX-17, (S)-N-(4-(2-Fluoroacetimidamido)-1-(5-phenyloxazol-2-yl)butyl)-2-methoxy-5-morpholinobenzamide] | > 500 |
| COc1cccc(OC)c1C(=O)N[C@@H](CCCNC(=N)CF)c1ncc(-c2ccc(Cl)cc2)o1 [EX-19] | 200 to 500 |
| COc1ccc(-c2cnc([C@H](CCCNC(=N)CF)NC(=O)c3c(OC)cccc3OC)o2)cc1 [EX-20, (S)-N-(4-(2-Fluoroacetimidamido)-1-(5-(4-methoxyphenyl)oxazol-2-yl)butyl)-2,6-dimethoxybenzamide] | 200 to 500 |
| COc1cccc(Cl)c1C(=O)N[C@@H](CCCNC(=N)CF)c1ncc(-c2ccc(Cl)cc2)o1 [EX-22, (S)-2-chloro-N-(1-(5-(4-chlorophenyl)oxazol-2-yl)-4-(2-fluoroacetimidamido)butyl)-6-methoxybenzamide] | 200 to 500 |
| CN(C)c1cccc(Cl)c1C(=O)N[C@@H](CCCNC(=N)CF)c1ncc(-c2ccc(Cl)cc2)o1 [EX-23, (S)-2-Chloro-N-(1-(5-(4-chlorophenyl)oxazol-2-yl)-4-(2-fluoroacetimidamido)butyl)-6-(dimethylamino)benzamide] | 200 to 500 |
| COc1cccc(Cl)c1C(=O)N[C@@H](CCCNC(=N)CF)c1ncc(-c2cc(F)cc(F)c2)o1 [EX-25, (S)-2-Chloro-N-(1-(5-(3,5-difluorophenyl)oxazol-2-yl)-4-(2-fluoroacetimidamido)butyl)-6-methoxybenzamide] | 200 to 500 |
| COc1cccc(Cl)c1C(=O)N[C@@H](CCCNC(=N)CF)c1ncc(-c2ccccc2Cl)o1 [EX-26, (S)-2-Chloro-N-(1-(5-(2-chlorophenyl)oxazol-2-yl)-4-(2-fluoroacetimidamido)butyl)-6-methoxybenzamide] | 200 to 500 |
| COc1cccc(Cl)c1C(=O)N[C@@H](CCCNC(=N)CF)c1ncc(-c2cccc(C(F)(F)F)c2)o1 [EX-27, (S)-2-Chloro-N-(4-(2-fluoroacetimidamido)-1-(5-(3-(trifluoromethyl)phenyl)oxazol-2-yl)butyl)-6-methoxybenzamide] | > 500 |

Now from value to molecule:

| IC50 [nM] | Compound |
| --- | --- |
| 200 to 500 | N=C(CF)NCCC[C@H](NC(=O)c1cccc(-c2cccc(Cl)c2)c1)c1ncc(-c2ccccc2)o1 [EX-1, (S)-3′-chloro-N-(4-(2-fluoroacetimidamido)-1-(5-phenyloxazol-2-yl)butyl)-[1,1′-biphenyl]-3-carboxamide] |
| 200 to 500 | CN(C)c1ccc2cc(C(=O)N[C@@H](CCCNC(=N)CCl)c3ncc(-c4ccccc4)o3)ccc2c1 [EX-3, N-[(1S)-4-(2-chloroethanimidamido)-1-(5-phenyl-1,3-oxazol-2-yl)butyl]-6-(dimethylamino)naphthalene-2-carboxamide] |
| 200 to 500 | CN(C)c1ccc2cc(C(=O)N[C@@H](CCCNC(=N)CF)c3ncc(-c4ccccc4)o3)ccc2c1 [EX-4, (S)-6-(Dimethylamino)-N-(4-(2-fluoroacetimidamido)-1-(5-phenyloxazol-2-yl)butyl)-2-naphthamide] |
| 200 to 500 | COc1cccc(-c2cccc(C(=O)N[C@@H](CCCNC(=N)CF)c3ncc(-c4ccccc4)o3)c2)c1 [EX-5, (S)—N-(4-(2-fluoroacetimidamido)-1-(5-phenyloxazol-2-yl)butyl)-3′-methoxy-[1,1′-biphenyl]-3-carboxamide] |
| 200 to 500 | COc1ccc(-c2cccc(C(=O)N[C@@H](CCCNC(=N)CF)c3ncc(-c4ccccc4)o3)c2)cc1 [EX-6, (S)—N-(4-(2-fluoroacetimidamido)-1-(5-phenyloxazol-2-yl)butyl)-4′-methoxy-[1,1′-biphenyl]-3-carboxamide] |
| < 200 | COc1cc2c(OC)cccc2cc1C(=O)N[C@@H](CCCNC(=N)CF)c1ncc(-c2ccccc2)o1 [EX-10] |
| 200 to 500 | COc1cc2c(OC)cccc2cc1C(=O)N[C@@H](CCCNC(=N)CF)c1ncc(C2CCCC2)o1 [EX-11, (S)-N-(1-(5-Cyclopentyloxazol-2-yl)-4-(2-fluoroacetimidamido)butyl)-3,5-dimethoxy-2-naphthamide] |
| 200 to 500 | COc1cc2c(OC)cccc2cc1C(=O)N[C@@H](CCCNC(=N)CF)c1ncc(-c2cccc(Cl)c2)o1 [EX-13, (S)-N-(1-(5-(3-Chlorophenyl)oxazol-2-yl)-4-(2-fluoroacetimidamido)butyl)-3,5-dimethoxy-2-naphthamide] |
| 200 to 500 | COc1cc2c(OC)cccc2cc1C(=O)N[C@@H](CCCNC(=N)CF)c1ncc(-c2cccc(F)c2)o1 [EX-14, (S)-N-(4-(2-Fluoroacetimidamido)-1-(5-(3-fluorophenyl)oxazol-2-yl)butyl)-3,5-dimethoxy-2-naphthamide] |
| 200 to 500 | N=C(CF)NCCC[C@H](NC(=O)c1cccc(N2CCCC2)c1)c1ncc(-c2ccccc2)o1 [EX-16, (S)—N-(4-(2-fluoroacetimidamido)-1-(5-phenyloxazol-2-yl)butyl)-3-(pyrrolidin-1-yl)benzamide] |
| 200 to 500 | COc1ccc(N2CCN(C)CC2)cc1C(=O)N[C@@H](CCCNC(=N)CF)c1ncc(-c2ccccc2)o1 [EX-18, (S)-N-(4-(2-Fluoroacetimidamido)-1-(5-phenyloxazol-2-yl)butyl)-2-methoxy-5-(4-methylpiperazin-1-yl)benzamide] |
| < 200 | COc1cccc(OC)c1C(=O)N[C@@H](CCCNC(=N)CF)c1ncc(-c2ccccc2Cl)o1 [EX-21, (S)-N-(1-(5-(2-Chlorophenyl)oxazol-2-yl)-4-(2-fluoroacetimidamido)butyl)-2,6-dimethoxybenzamide] |
| < 200 | COc1cccc(Cl)c1C(=O)N[C@@H](CCCNC(=N)CF)c1ncc(-c2ccc(F)cc2)o1 [EX-24, (S)-2-Chloro-N-(4-(2-fluoroacetimidamido)-1-(5-(4-fluorophenyl)oxazol-2-yl)butyl)-6-methoxybenzamide] |
